According to patent US20100189683A1, “Pulsatile Dosing of Gossypol for Treatment of Disease” (Ascenta Therapeutics, Inc., priority 2008, published 2010):

System: patients with advanced cancer
Test: Phase I clinical trial, daily versus pulsatile dosing of (−)-gossypol: adverse events graded by NCI-CTCAE v3 (Daily N = 38, BID × 3 d N = 21, Weekly N = 12)
Assay type: in vivo, human
Procedure: A phase I clinical trial was carried out to compare the maximum tolerated dose and safety of daily (i.e., continuous) versus pulsatile (i.e., intermittent) dosing of (−)-gossypol in patients with advanced cancer. A secondary objective of this study was to identify any anti-tumor activity of (−)-gossypol. Patients were treated with increasing doses of (−)-gossypol according to the following dosing schedules: “Daily” dosing: 5 to 60 mg/day of (−)-gossypol on 21 days per 28 day cycle; “BID×3d” dosing: 30 to 80 mg BID of (−)-gossypol on 3 consecutive days (e.g., Monday-Tuesday-Wednesday) repeated every other week per 28 day cycle; and “Weekly” dosing: 80 to 200 mg of (−)-gossypol once weekly per 28 day cycle. Adverse events (AEs) were graded by NCI-CTCAE v3.

Cc1cc2c(C(C)C)c(O)c(O)c(C=O)c2c(O)c1-c1c(C)cc2c(C(C)C)c(O)c(O)c(C=O)c2c1O [(−)-gossypol]
5 (13) N (%): ALT increase (Daily, Grade ¾) | Diarrhea (Daily, Grade ¾) | Nausea (Daily, Grade ¾)
6 (13) N (%): AST increase (Daily, Grade ¾)
0 N (%): Abdominal distention (Daily, Grade ¾) | Albumin decreased (Daily, Grade ¾) | Alkaline phosphatase increase (Daily, Grade ¾) | Back pain (Daily, Grade ¾) | Constipation (Daily, Grade ¾) | Cough (Daily, Grade ¾) | Creatinine increased (Daily, Grade ¾) | Creatinine phosphokinase increase (Daily, Grade ¾) | Dizziness (Daily, Grade ¾) | Dry mouth (Daily, Grade ¾) | Dysgeusia (Daily, Grade ¾) | Flatulence (Daily, Grade ¾) | Headache (Daily, Grade ¾) | Hepatic encephalopathy (Daily, Grade ¾) | Hyperkalemia (Daily, Grade ¾) | Insomnia (Daily, Grade ¾) | Pain (Daily, Grade ¾) | Pancreatitis (Daily, Grade ¾) | Peripheral edema (Daily, Grade ¾) | Pneumatosis intestinalis (Daily, Grade ¾) | Proteinurea (Daily, Grade ¾) | Renal Failure (Daily, Grade ¾) | Sinusitis (Daily, Grade ¾) | Urinary Tract Infection (Daily, Grade ¾) | Weight decreased (Daily, Grade ¾) | White blood cells increased (Daily, Grade ¾) | Abdominal discomfort (Weekly, Grade ½) | Albumin decreased (Weekly, Grade ½) | Cough (Weekly, Grade ½) | Creatinine phosphokinase increase (Weekly, Grade ½) | Diarrhea (Weekly, Grade ½) | Hepatic encephalopathy (Weekly, Grade ½) | Hyperkalemia (Weekly, Grade ½) | Hyponatremia (Weekly, Grade ½) | Infection (Weekly, Grade ½) | Mental status changes (Weekly, Grade ½) | Pain (Weekly, Grade ½) | Pancreatitis (Weekly, Grade ½) | Pleural Effusion (Weekly, Grade ½) | Pneumatosis intestinalis (Weekly, Grade ½) | Pneumonia (Weekly, Grade ½) | Pyrexia (Weekly, Grade ½) | Sinusitis (Weekly, Grade ½) | Small intestinal obstruction (ileus) (Weekly, Grade ½) | Vomiting (Weekly, Grade ½) | White blood cells increased (Weekly, Grade ½) | Abdominal discomfort (Weekly, Grade ¾) | Abdominal distention (Weekly, Grade ¾) | Abdominal pain (Weekly, Grade ¾) | Anorexia or decreased appetite (Weekly, Grade ¾) | Back pain (Weekly, Grade ¾) | Constipation (Weekly, Grade ¾) | Cough (Weekly, Grade ¾) | Diarrhea (Weekly, Grade ¾) | Dizziness (Weekly, Grade ¾) | Dry mouth (Weekly, Grade ¾) | Dysgeusia (Weekly, Grade ¾) | Flatulence (Weekly, Grade ¾) | Headache (Weekly, Grade ¾) | Hyperkalemia (Weekly, Grade ¾) | Hypocalcemia (Weekly, Grade ¾) | Hyponatremia (Weekly, Grade ¾) | Insomnia (Weekly, Grade ¾) | Nausea (Weekly, Grade ¾) | Pain (Weekly, Grade ¾) | Pancreatitis (Weekly, Grade ¾) | Peripheral edema (Weekly, Grade ¾) | Pneumonia (Weekly, Grade ¾) | Proteinurea (Weekly, Grade ¾) | Renal Failure (Weekly, Grade ¾) | Sinusitis (Weekly, Grade ¾) | Urinary Tract Infection (Weekly, Grade ¾) | Vomiting (Weekly, Grade ¾) | Weight decreased (Weekly, Grade ¾) | White blood cells increased (Weekly, Grade ¾)
4 (11) N (%): Fatigue/Asthenia (Daily, Grade ¾) | Small intestinal obstruction (ileus) (Daily, Grade ¾)
2 (5) N (%): Abdominal discomfort (Daily, Grade ¾) | Dehydration (Daily, Grade ¾) | Hypocalcemia (Daily, Grade ¾) | Pleural Effusion (Daily, Grade ¾)
3 (25) N (%): ALT increase (Weekly, Grade ½) | Abdominal distention (Weekly, Grade ½) | Insomnia (Weekly, Grade ½) | Peripheral edema (Weekly, Grade ½)
2 (8) N (%): Small intestinal obstruction (ileus) (Weekly, Grade ¾)
4 (33) N (%): Constipation (Weekly, Grade ½) | AST increase (Weekly, Grade ¾)
7 (58) N (%): Anorexia or decreased appetite (Weekly, Grade ½)
1 (3) N (%): Abdominal pain (Daily, Grade ¾) | Anorexia or decreased appetite (Daily, Grade ¾) | Hyperbilirubinaemia (Daily, Grade ¾) | Hyponatremia (Daily, Grade ¾) | Infection (Daily, Grade ¾) | Mental status changes (Daily, Grade ¾) | Pneumonia (Daily, Grade ¾) | Pyrexia (Daily, Grade ¾) | Troponin I or T increased (Daily, Grade ¾)
1 (8) N (%): AST increase (Weekly, Grade ½) | Back pain (Weekly, Grade ½) | Dry mouth (Weekly, Grade ½) | Dyspnea (Weekly, Grade ½) | Flatulence (Weekly, Grade ½) | Headache (Weekly, Grade ½) | Renal Failure (Weekly, Grade ½) | Troponin I or T increased (Weekly, Grade ½) | ALT increase (Weekly, Grade ¾) | Albumin decreased (Weekly, Grade ¾) | Alkaline phosphatase increase (Weekly, Grade ¾) | Creatinine increased (Weekly, Grade ¾) | Creatinine phosphokinase increase (Weekly, Grade ¾) | Dyspnea (Weekly, Grade ¾) | Fatigue/Asthenia (Weekly, Grade ¾) | Hepatic encephalopathy (Weekly, Grade ¾) | Hypokalemia (Weekly, Grade ¾) | Infection (Weekly, Grade ¾) | Mental status changes (Weekly, Grade ¾) | Pleural Effusion (Weekly, Grade ¾) | Pneumatosis intestinalis (Weekly, Grade ¾) | Pyrexia (Weekly, Grade ¾)
10 (48) N (%): Any AE (Weekly, Grade ¾)
reduced percentage of AEs: Percentage of AEs, particularly Grade 3/4 AEs (pulsatile dosing (BID×3d and Weekly) as compared to continuous daily dosing)
37 (98) N (%): Any AE (Daily, Grade ¾)
10 (83) N (%): Any AE (Weekly, Grade ½)
2 (17) N (%): Abdominal pain (Weekly, Grade ½) | Alkaline phosphatase increase (Weekly, Grade ½) | Creatinine increased (Weekly, Grade ½) | Dehydration (Weekly, Grade ½) | Dizziness (Weekly, Grade ½) | Dysgeusia (Weekly, Grade ½) | Hyperbilirubinaemia (Weekly, Grade ½) | Hypocalcemia (Weekly, Grade ½) | Hypokalemia (Weekly, Grade ½) | Nausea (Weekly, Grade ½) | Proteinurea (Weekly, Grade ½) | Urinary Tract Infection (Weekly, Grade ½) | Weight decreased (Weekly, Grade ½) | Dehydration (Weekly, Grade ¾) | Hyperbilirubinaemia (Weekly, Grade ¾) | Troponin I or T increased (Weekly, Grade ¾)
7 (18) N (%): Vomiting (Daily, Grade ¾)
8 (67) N (%): Fatigue/Asthenia (Weekly, Grade ½)
3 (8) N (%): Dyspnea (Daily, Grade ¾) | Hypokalemia (Daily, Grade ¾)
